From patent US6933126B2, “Membrane transportable fluorescent substrates” (Applera Corporation, priority 2001, dated 2005)

Experiments:
[1] = target: T1, β-galactosidase in Psi-2-BAG-α cells (Escherichia coli, UniProt P00722); assay: FDG detection of β-galactosidase in Psi-2-BAG-α cells, passive load vs "SUPERFECT" complex; type: cell-based; settings: for Fluorescence (w "SUPERFECT") / Fluorescence (w/o "SUPERFECT"): Cells + Supernatant, 2 hrs, ex 485/20, em 530/25; for Fluorescence (w "SUPERFECT"): 0.6 mM FDG with 25 μl "SUPERFECT" carrier; for Fluorescence (w/o "SUPERFECT"): 0.6 mM FDG, passive load
T1 construct: expressed in transfected cells; host or cells: Psi-2-BAG-α cells (own knowledge: mouse NIH-3T3-derived psi-2 packaging line stably carrying the BAG lacZ retroviral vector)
T1 sequence (P00722 whole entry): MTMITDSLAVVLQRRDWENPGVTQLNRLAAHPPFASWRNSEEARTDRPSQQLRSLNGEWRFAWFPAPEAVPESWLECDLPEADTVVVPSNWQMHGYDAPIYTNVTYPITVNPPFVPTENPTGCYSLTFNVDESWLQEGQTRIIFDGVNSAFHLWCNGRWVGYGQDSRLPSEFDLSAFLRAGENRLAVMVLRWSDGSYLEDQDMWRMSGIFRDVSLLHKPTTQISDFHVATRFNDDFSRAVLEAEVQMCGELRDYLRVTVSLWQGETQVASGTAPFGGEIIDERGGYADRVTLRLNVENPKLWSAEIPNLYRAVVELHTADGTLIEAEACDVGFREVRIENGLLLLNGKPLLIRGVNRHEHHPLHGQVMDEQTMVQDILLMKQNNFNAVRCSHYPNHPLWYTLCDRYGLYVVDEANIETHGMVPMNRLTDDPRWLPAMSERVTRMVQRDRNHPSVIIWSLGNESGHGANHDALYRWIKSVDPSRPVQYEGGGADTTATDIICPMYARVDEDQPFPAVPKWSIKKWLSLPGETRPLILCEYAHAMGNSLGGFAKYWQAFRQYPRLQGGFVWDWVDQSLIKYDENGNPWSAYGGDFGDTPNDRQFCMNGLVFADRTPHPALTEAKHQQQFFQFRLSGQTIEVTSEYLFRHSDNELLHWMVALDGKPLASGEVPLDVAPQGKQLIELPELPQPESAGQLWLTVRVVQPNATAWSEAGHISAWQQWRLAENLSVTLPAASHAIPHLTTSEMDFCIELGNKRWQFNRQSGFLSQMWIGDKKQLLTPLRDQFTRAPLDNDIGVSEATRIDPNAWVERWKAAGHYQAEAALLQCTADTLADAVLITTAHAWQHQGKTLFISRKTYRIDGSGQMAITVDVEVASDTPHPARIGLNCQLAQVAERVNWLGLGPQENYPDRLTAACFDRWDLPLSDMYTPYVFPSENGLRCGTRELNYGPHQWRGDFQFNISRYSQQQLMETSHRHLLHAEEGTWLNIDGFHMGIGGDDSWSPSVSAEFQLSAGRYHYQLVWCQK
Description: A first experiment was conducted to determine the effect of complex formation on FDG detection of β-galactosidase in Psi-2-BAG-α cells. First, FDG detection was measured using FDG without a transporter or carrier complexed thereto (passive load). This measured value was compared to a measurement using a complex of FDG and an activated polyamino dendrimer (e.g., “SUPERFECT”, which is a trademark of Qiagen N.V.).
For the passive load test, two vials of cells were prepared. First, two vials each having 330,000 psi-2-BAG-α cells suspended in 250 μl 0.6 mM FDG in Opti-MEM were prepared. A first vial of cells was incubated at 4° C. for 2 hrs and the second vial of cells was incubated at 37° C. for 2 hrs.
For the polyamino dendrimer complex, two vials of cells were prepared in the following manner. First, two vials each having 330,000 psi-2-BAG-α cells suspended in 250 μl 0.6 mM FDG in Opti-MEM containing 25 μl “SUPERFECT” as a polycationic carrier were prepared. The first vial of cells was incubated at 4° C. for 2 hrs and the second vial of cells was incubated at 37° C. for 2 hrs.
Following incubation, 20 μl triplicate samples of the above four cell suspensions (passive/4° C., passive/37° C., “SUPERFECT”/4° C., “SUPERFECT”/37° C.) were added to a 96-well plate.
(§1) The 96-well plate was read on a Cytofluor 4000 with excitation filter 485/20 and emission filter 530/25. The data was analyzed as triplicate averages.

[2] = system: β-galactosidase complementation in FRAP/FKBP12 (B14) cells; assay: FDG detection of rapamycin-induced β-galactosidase complementation in FRAP/FKBP12 (B14) cells; type: cell-based; settings: for Fluorescence (w "SUPERFECT") / Fluorescence (w/o "SUPERFECT"): 90 min at 37° C.; for Fluorescence (w "SUPERFECT"): 0.6 mM FDG with "SUPERFECT" carrier; for Fluorescence (w/o "SUPERFECT"): 0.6 mM FDG, passive load; for Fluorescence signal to noise ratio (S/N): Induced cells
Description: A second experiment was conducted to determine the effect of fluorescent substrate complex formation on FDG detection of rapamycin-induced β-galactosidase complementation in FRAP/FKBPI2 (B14) cells.
A 96-well plate was plated with FRAP/FKBP12 cells at 10,000 cells per well. Half of the cells were incubated overnight with rapamycin to induce β-galactosidase complementation. The next day, the cells were washed with Opti-MEM. Half of the cells were incubated for 90 min at 37° C. with 254 μl 0.6 mM FDG (fluorescein-di-β-D-galactoside) in Opti-MEM. The remaining cells were incubated 90 min at 37° C. with 0.6 mM FDG, containing “SUPERFECT” as a carrier (14 μl “SUPERFECT” in 240 μl 0.6 mM FDG in Opti-MEM).
as §1

[3] = Induced cells (rapamycin overnight)

O=C1OC2(c3ccc(O[C@@H]4O[C@H](CO)[C@H](O)[C@H](O)[C@H]4O)cc3Oc3cc(O[C@@H]4O[C@H](CO)[C@H](O)[C@H](O)[C@H]4O)ccc32)c2ccccc21 [FDG, fluorescein di-β-D-galactopyranoside]
Fluorescence (w "SUPERFECT") ([1]; 4° C.): 8,343 | Fluorescence (w/o "SUPERFECT") ([1]; 4° C.): 807 | Fluorescence (w "SUPERFECT") ([1]; 37° C.): 33,943 | Fluorescence (w/o "SUPERFECT") ([1]; 37° C.): 2492 | Increase of fluorescence signal with Superfect-assisted load ([1]; Superfect-assisted load of FDG vs passive load): ≥ 10 fold | Fluorescence (w "SUPERFECT") [2, 3]: 12,721 | Fluorescence (w/o "SUPERFECT") [2, 3]: 594 | Fluorescence signal to noise ratio (S/N) ([2]; "SUPERFECT" assisted load of FDG): approximately 37 | Fluorescence signal to noise ratio (S/N) ([2]; uncomplexed or passive load of FDG (w/o "SUPERFECT")): about 2 | Fluorescence (w "SUPERFECT") ([2]; Uninduced cells): 338 | Fluorescence (w/o "SUPERFECT") ([2]; Uninduced cells): 253
